Measured values from ChEMBL document CHEMBL1150772, “Chemometric and chemoinformatic analyses of anabolic and androgenic activities of testosterone and dihydrotestosterone analogues” (Bioorg Med Chem, 2008).

Test: physchem
Conditions: octanol/water
Description: Lipophilicity, log P of the compound

Structure (SMILES) | logP
CN(C)CCN/C=C1\C[C@@]2(C)[C@@H](CC[C@@H]3[C@@H]2CC[C@@]2(C)[C@H]3CC[C@]2(C)O)CC1=O | 2.53
C[C@]12CC/C(=N/NC(N)=O)C[C@@H]1CC[C@@H]1[C@@H]2CC[C@]2(C)[C@@H](O)CC[C@@H]12 | 3.45
CC(=O)O[C@H]1CC[C@H]2[C@@H]3CC[C@H]4C[C@H]5[C@@H](C[C@]4(C)[C@H]3CC[C@]12C)C5(F)F | 4.77
C[C@]12C/C(=C\N)C(=O)C[C@@H]1CC[C@@H]1[C@@H]2CC[C@@]2(C)[C@H]1CC[C@]2(C)O | 2.8
C[C@@H]1CC2=CC(=O)CC[C@]2(C)[C@H]2CC[C@]3(C)[C@@H](O)CC[C@H]3[C@H]12 | 4.17
C[C@]12C[C@@H]3[C@H](C[C@@H]1CC[C@@H]1[C@@H]2CC[C@@]2(C)[C@H]1CC[C@]2(C)O)C3(F)F | 4.72
CC(=O)O[C@H]1CC[C@H]2[C@@H]3CC[C@H]4C[C@@H]5[C@H](C[C@]4(C)[C@H]3CC[C@]12C)C5(F)F | 4.77
CCCO[C@@]1(C)CC[C@H]2[C@@H]3CC[C@H]4CC(=O)[C@H](C)C[C@]4(C)[C@H]3CC[C@@]21C | 5.66
C[C@@H]1C[C@@H]2[C@H](CC[C@]3(C)[C@@H](O)CC[C@@H]23)[C@@]2(C)CCC(=O)C[C@H]12 | 4.26
C[C@]12CC[C@H]3[C@@H](C[C@@H](F)C4=CC(=O)CC[C@@]43C)[C@@H]1CC[C@@H]2O | 3.53
C[C@]12CC[C@H]3[C@@H](CCC4=CC(=O)CC[C@@]43C)[C@@H]1CC[C@@H]2O[Si](C)(C)C | 3.95
C[C@]12CCC(=O)C=C1CC[C@@H]1[C@@H]2[C@@H](O)C[C@@]2(C)[C@H]1CC[C@]2(C)O | 2.93
C[C@]12CCC(=O)C[C@@H]1CC[C@H]1C3=CC[C@H](O)[C@@]3(C)CC[C@@H]12 | 3.5
C[C@]12C[C@H](O)[C@H]3[C@@H](CCC4=CC(=O)CC[C@@]43C)[C@@H]1CC[C@@H]2O | 2.85
COC[C@@H]1C[C@@]2(C)[C@@H](CC[C@@H]3[C@@H]2CC[C@]2(C)[C@@H](O)CC[C@@H]32)CC1=O | 3.77
CCCO[C@@]1(C)CC[C@H]2[C@@H]3C[C@H](C)[C@H]4CC(=O)[C@H](C)C[C@]4(C)[C@H]3CC[C@@]21C | 5.99
CCOC1(O[C@H]2CC[C@H]3[C@@H]4CC[C@H]5CC(=O)CC[C@]5(C)[C@H]4CC[C@]23C)CCCC1 | 6.02
C[C@H]1C/C(=N\O)C[C@@H]2CC[C@@H]3[C@H](CC[C@@]4(C)[C@H]3CC[C@]4(C)O)[C@]21C | 5
C[C@@H]1CC2=CC(=O)CC[C@]2(C)[C@H]2CC[C@]3(C)C(=O)CC[C@H]3[C@H]12 | 4.69
C[C@]12CC[C@H]3[C@@H](CCC4=CC(=O)[C@H](F)C[C@@]43C)[C@@H]1CC[C@@H]2O | 3.86
C[C@]12CC[C@H]3[C@@H](CCC4=CC(=O)CC[C@@]43C)[C@@H]1CC[C@@H]2OC(=O)C(F)Cl (stereo partly drawn) | 4.7
C[C@]12C[C@H](O)CC[C@@H]1CC[C@@H]1[C@@H]2CC[C@@]2(C)[C@H]1CC[C@]2(C)O | 3.8

Structure (SMILES) | logP
CC(=O)O[C@H]1CC[C@H]2[C@@H]3CCC4=C(Cl)C(=O)CC[C@]4(C)[C@H]3[C@@H](O)C[C@]12C | 2.88
CC(=O)O[C@H]1CC[C@H]2[C@@H]3CCC4=C(O)C(=O)CC[C@]4(C)[C@H]3CC[C@]12C | 3.06
C[C@]12C[C@H]3O[C@H]3C[C@@H]1CC[C@@H]1[C@@H]2CC[C@]2(C)[C@@H](O)CC[C@@H]12 | 3.5
COC1(O[C@H]2CC[C@H]3[C@@H]4CC[C@H]5CC(=O)CC[C@]5(C)[C@H]4CC[C@]23C)CCCC1 | 5.68
CC(=O)O[C@H]1CC[C@H]2[C@@H]3CCC4=CC(=O)CC[C@]4(C)[C@H]3CC[C@]12C | 4.2
CC1=C[C@@]2(C)C(=CC1=O)C=C[C@@H]1[C@@H]2CC[C@@]2(C)[C@H]1CC[C@]2(C)O | 4.01
C[C@]12C[C@@H](F)C(=O)C[C@@H]1CC[C@@H]1[C@@H]2CC[C@]2(C)[C@@H](O)CC[C@@H]12 | 3.96
C[C@H]1C[C@@H]2[C@H](CC[C@@]3(C)[C@H]2CC[C@]3(C)O)[C@@]2(C)CCC(=O)C[C@H]12 | 4.34
CC(=O)O[C@H]1CC[C@H]2[C@@H]3CCC4=C(Cl)C(=O)CC[C@]4(C)[C@H]3CC[C@]12C | 3.87
C[C@H]1C[C@@H]2[C@H](CC[C@]3(C)[C@@H](O)CC[C@@H]23)[C@@]2(C)CCC(=O)C[C@H]12 | 4.26
C[C@]12CC[C@H]3[C@@H](CCC4=CC(=O)CC[C@@]43C)[C@@H]1CC[C@@H]2OC(=O)C(Cl)Cl | 5.04
C[C@]12C[C@@H]3O[C@@H]3C[C@@H]1CC[C@@H]1[C@@H]2CC[C@]2(C)[C@@H](O)CC[C@@H]12 | 4.5
C[C@@H]1C[C@]2(C)C3=CC[C@@]4(C)C(CC[C@]4(C)O)[C@@H]3CC[C@H]2CC1=O (stereo partly drawn) | 4.14
C[C@H]1C[C@@H]2[C@H](CC[C@@]3(C)[C@H]2CC[C@]3(C)O)[C@@]2(C)CCC(=O)C=C12 | 4.24
C[C@]12CCC(=O)C=C1CC[C@@H]1[C@@H]2C(=O)C[C@]2(C)C(=O)CC[C@@H]12 [ADRENOTERONE] | 3.75
C[C@]12CC[C@@H](O)C[C@@H]1CC[C@@H]1[C@@H]2CC[C@]2(C)[C@@H](O)CC[C@@H]12 [ANDROSTANDIOL] | 5.49
C[C@@H]1CC2=CC(=O)CC[C@]2(C)[C@H]2CC[C@@]3(C)[C@@H](CC[C@]3(C)O)[C@H]12 [BOLASTERONE] | 4.24
C[C@@H]1C[C@@]2(C)[C@@H](CC[C@@H]3[C@@H]2CC[C@]2(C)[C@@H](O)CC[C@@H]32)CC1=O [DROMOSTANOLONE] | 4.5
C[C@]12CCC(=O)C[C@@H]1CC[C@@H]1[C@@H]2CC[C@@]2(C)[C@H]1CC[C@]2(C)O [MESTANOLONE] | 4.01
C[C@]12CCC(=O)C=C1CC[C@@H]1[C@@H]2CC[C@@]2(C)[C@H]1CC[C@]2(C)O [METHYLTESTOSTERONE] | 3.91
C[C@]12CC[C@H]3[C@@H](CCC4=CC(=O)CC[C@@]43C)[C@@H]1CC[C@@H]2O [TESTOSTERONE] | 2.53
